The values below are quoted from earlier work in US6620432B2, “Phenytoin sodium pharmaceutical compositions” (Mylan Pharmaceuticals Inc., priority 1999, dated 2003).

Structures can show the parent of a compound that is named as a salt.

The conditions of this data set: general statement, no test described.

With `O=C1NC(=O)C(c2ccccc2)(c2ccccc2)N1` [Phenytoin sodium, monosodium salt of 5,5-diphenyl hydantoinate], the Solubility in water result is given as “highly water soluble”.
For the compound `O=C1NC(=O)C(c2ccccc2)(c2ccccc2)N1` [phenytoin], the Solubility in water entry is on record as “water insoluble”.
